Measurements from PubChem BioAssay AID248 (DTP/NCI, 2004).
Where “and” joins values, the source holds several entries; their conditions need not be identical. Equal entries are not always repeated. Inconclusive results and toxic doses are left out.

Test system: L1210 leukemia ip in BDF1 mice, survival T/C
Assay: NCI In Vivo Anticancer Drug Screen. Data for tumor model L1210 Leukemia (intraperitoneal) in B6D2F1 (BDF1) mice
Conditions: endpoint: mean survival time, higher = longer survival
In short: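 Transplanted-tumor mice were given test agent; controls received vehicle only. Survival readings from the two groups were divided (treated over control).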

Question: How did the T/C (dose: 0.48 mg/kg/injection, schedule: Q01DX009 (ip), vehicle: saline) turn out when CC(CCC/C=C/CCCN(C)C(=N)N)CC(C)C1OC(=O)C(C)C(O)/C=C/C(C)C(O)C(C)C(O)C(C)C(O)CCCC(O)CC2(O)OC(CC(OC(=O)CC(=O)O)CC(O)CC(O)C(C)C(O)/C=C/C=C/C1C)CC(O)C2O (centres undefined) was run?
Answer: The T/C was 90 % of control.

Question: And the T/C (dose: 0.73 mg/kg/injection, schedule: Q01DX009 (ip), vehicle: saline)?
Answer: Its T/C is 92 % of control.

Question: What about the T/C (dose: 0.96 mg/kg/injection, schedule: Q04DX003 (ip), vehicle: saline) of the same compound?
Answer: Its T/C is 106 % of control.

Question: What about the T/C (dose: 1.09 mg/kg/injection, schedule: Q01DX009 (ip), vehicle: saline) of the same compound?
Answer: Its T/C is 92 % of control.

Question: And the T/C (dose: 1.46 mg/kg/injection, schedule: Q04DX003 (ip), vehicle: saline)?
Answer: Its T/C is 104 % of control.

Question: And the T/C (dose: 2.18 mg/kg/injection, schedule: Q04DX003 (ip), vehicle: saline)?
Answer: The T/C was 120 % of control.

Question: And the T/C (dose: 3.2 mg/kg/injection, schedule: Q04DX003 (ip), vehicle: saline)?
Answer: The T/C was 97 % of control.

Question: What about the T/C (dose: 4.9 mg/kg/injection, schedule: Q04DX003 (ip), vehicle: saline) of the same compound?
Answer: The T/C was 103 % of control and 86 % of control.

Question: And the T/C (dose: 7.3 mg/kg/injection, schedule: Q04DX003 (ip), vehicle: saline)?
Answer: The T/C was 92 % of control.

Question: And the T/C (dose: 23.0 micrograms/kg/injection, schedule: Q01DX001 (ip), vehicle: saline)?
Answer: Its T/C is 98 % of control.

Question: What about the T/C (dose: 23.0 micrograms/kg/injection, schedule: Q01DX009 (ip), vehicle: saline) of the same compound?
Answer: Its T/C is 100 % of control.

Question: And the T/C (dose: 23.0 micrograms/kg/injection, schedule: Q04DX003 (ip), vehicle: saline)?
Answer: Its T/C is 105 % of control.

Question: And the T/C (dose: 47.0 micrograms/kg/injection, schedule: Q01DX001 (ip), vehicle: saline)?
Answer: The T/C was 104 % of control.

Question: And the T/C (dose: 47.0 micrograms/kg/injection, schedule: Q01DX009 (ip), vehicle: saline)?
Answer: The T/C was 108 % of control.

Question: What about the T/C (dose: 47.0 micrograms/kg/injection, schedule: Q04DX003 (ip), vehicle: saline) of the same compound?
Answer: Its T/C is 106 % of control.

Question: What about the T/C (dose: 95.0 micrograms/kg/injection, schedule: Q01DX001 (ip), vehicle: saline) of the same compound?
Answer: Its T/C is 97 % of control.

Question: What about the T/C (dose: 95.0 micrograms/kg/injection, schedule: Q01DX009 (ip), vehicle: saline) of the same compound?
Answer: The T/C was 94 % of control.

Question: And the T/C (dose: 95.0 micrograms/kg/injection, schedule: Q04DX003 (ip), vehicle: saline)?
Answer: The T/C was 101 % of control.

Question: What about the T/C (dose: 141.0 micrograms/kg/injection, schedule: Q01DX009 (ip), vehicle: saline) of the same compound?
Answer: Its T/C is 106 % of control.

Question: What about the T/C (dose: 141.0 micrograms/kg/injection, schedule: Q04DX003 (ip), vehicle: saline) of the same compound?
Answer: Its T/C is 97 % of control.

Question: And the T/C (dose: 215.0 micrograms/kg/injection, schedule: Q01DX009 (ip), vehicle: saline)?
Answer: The T/C was 105 % of control.

Question: What about the T/C (dose: 215.0 micrograms/kg/injection, schedule: Q04DX003 (ip), vehicle: saline) of the same compound?
Answer: Its T/C is 100 % of control.

Question: And the T/C (dose: 322.0 micrograms/kg/injection, schedule: Q01DX009 (ip), vehicle: saline)?
Answer: The T/C was 103 % of control.

Question: What about the T/C (dose: 322.0 micrograms/kg/injection, schedule: Q04DX003 (ip), vehicle: saline) of the same compound?
Answer: Its T/C is 103 % of control.

Question: How did the T/C (dose: 1.56 mg/kg/injection, schedule: Q01DX009 (ip), vehicle: water) turn out when C[n+]1ccc2cc(-c3ccccc3)c3ccccc3c2c1 was run?
Answer: Its T/C is 102 % of control.

Question: And the T/C (dose: 3.12 mg/kg/injection, schedule: Q01DX009 (ip), vehicle: water)?
Answer: The T/C was 104 % of control.

Question: What about the T/C (dose: 6.25 mg/kg/injection, schedule: Q01DX009 (ip), vehicle: water) of the same compound?
Answer: Its T/C is 104 % of control.

Question: And the T/C (dose: 6.25 mg/kg/injection, schedule: Q04DX003 (ip), vehicle: water)?
Answer: The T/C was 98 % of control.

Question: And the T/C (dose: 12.5 mg/kg/injection, schedule: Q01DX009 (ip), vehicle: water)?
Answer: The T/C was 95 % of control.

Question: And the T/C (dose: 12.5 mg/kg/injection, schedule: Q04DX003 (ip), vehicle: water)?
Answer: The T/C was 103 % of control.

Question: What about the T/C (dose: 25.0 mg/kg/injection, schedule: Q04DX003 (ip), vehicle: water) of the same compound?
Answer: Its T/C is 88 % of control.

Question: How did the T/C (dose: 100.0 mg/kg/injection, schedule: Q01DX001 (ip), vehicle: DMSO) turn out when O=P1(NCCCl)OCCC(O)N1CCCl (centres undefined) was run?
Answer: Its T/C is 242 % of control.

Question: What about the T/C (dose: 200.0 mg/kg/injection, schedule: Q01DX001 (ip), vehicle: DMSO) of the same compound?
Answer: The T/C was 284 % of control.

Question: What about the T/C (dose: 400.0 mg/kg/injection, schedule: Q01DX001 (ip), vehicle: DMSO) of the same compound?
Answer: The T/C was 273 % of control.
